According to US20240067672A1, “FLAVONE DERIVATIVE FOR TREATING TUMORS AND USE THEREOF” (SICHUAN FUSHENGYUAN TECHNOLOGY CO., LTD, priority 2019, published 2024):
Converted amounts (≈) assume the structure as drawn. Read-outs that look alike come from different tables or passages of the source.

Experiments:
[1] = Determination of solubility (HPLC); format: physicochemical; conditions: for solubility: thermodynamic from solid
Procedure: About 1.325 mg of Icaritin and the synthesized derivative were weighed and dissolved in 1.5 mL methanol respectively, then diluted with methanol into solutions of 10, 20, 50, 100, 150, 200, 500 μg/mL, and filtered over an organic-system filter head of 0.45 μm into sample bottles, obtaining the samples for test. Four parts of Icaritin and the synthesized derivative were weighed respectively, 1.00 mg for each part, and placed into 1.5 mL EP tubes, and 1 mL of water, normal saline, PBS, and 0.1% Tween 80 were respectively added thereto. The obtained solutions were ultrasonicated for 1 h, placed in a water bath at 37° C. overnight, and centrifuged at 10000 r/min for 3 min to collect supernatants. The supernatants were taken into sample bottles and detected by HPLC. The experiments were conducted in parallel for three times. The detection of HPLC is conducted under conditions of a chromatographic column of waters Symmetry C18, a mobile phase of a solution of methanol and water with a ratio of 80:20, a flow rate of 1.0 mL/min, a column temperature of 30° C., a detection wavelength of 210 nm, a run time of 30 min, and a sample load of 20 μL.

[2] = test system: SMMC7721 hepatoma cells; experiment: Anti-tumor activity in vitro, MTT method, SMMC7721; format: cell-based, human; conditions: for IC50: MTT; for IC50 compared with Icaritin, SMMC7721 72 h: SMMC7721, 72 h after administration
Procedure: (§1) The effects of Icaritin and its derivatives on the activities of HepG2 and SMMC7721 hepatoma cells were investigated by a MTT method. […] After reaction for 48, 7 2 h, each well was added with 20 μL 5 mg/mL, of MTT solution, and incubated in a cell incubator for 3-4 h. Then the liquid in the well plates was sucked to discard. Each well was added with 150 μL of dimethyl sulfoxide (DMSO), and shaken on an enzyme-labeled instrument for 30 s at ambient temperature so that the Formazan crystals were dissolved sufficiently. The absorbance value A of each well at 570 nm was detected by the enzyme-labeled instrument, and the experiment was repeated for 3 times.

[3] = test system: HepG2 hepatoma cells; experiment: Anti-tumor activity in vitro, MTT method, HepG2; format: cell-based, human; conditions: for IC50: MTT; for IC50 compared with Icaritin, HepG2 72 h: HepG2, 72 h after administration; for IC50 compared with Icaritin, 48 and 72 h: HepG2 and SMMC7721, 48 and 72 h
Procedure: as §1

[4] = test system: HepG2 subcutaneous tumor; experiment: Anti-tumor activity in vivo, HepG2 nude mouse model; parameters: species or system Balb/c nude mice; conditions: HepG2 nude mice, intraperitoneally every day for 21 days; for tumor inhibition rate: equal mole of Icaritin (Icaritin 10 mg/kg); for anti-tumor activity in vivo (tumor volume, FIG. 1): high and low dose
Excerpt: According to the investigation results of solubility and cell activity, compounds 51 and 57 with high solubility and strong cell activity were selected to evaluate the anti-hepatoma activity in vivo on HepG2 nude mouse models.
Human hepatoma cells HepG2 were cultivated to logarithmic growth phase in DMEM culture medium containing 10% fetal calf serum and 1% antibiotics (penicillin and streptomycin), and digested by adding 0.25% pancreatin. After the resulting cells were cultivated in DMEM and the pancreatin was removed, they were centrifuged at 1000 rpm for 3 min. Then the cells were collected and washed with free medium until no bubbles produced as observed by naked eyes, and then ° entrifuged. After discarding the supernatant, the cells were resuspended with free medium adjust the cell density to 1×10^6/100 μL.
70 Balb/c nude mice raised in an SPF-grade animal house were taken. 100 μL, HepG2 cells were inoculated subcutaneously at the right lateral rib of each nude mouse. The growing status of nude mice was observed and the subcutaneous tumor volume was measured every day. One week after inoculation, obvious nodules were formed subcutaneously in nude mice. Administration was initiated when the tumor grew to 100 mm^3.
Tumor volume increased to 80-120 mm^3 at two weeks after inoculation, marked as Day 0. The nude mice were randomly divided into 6 groups with 6 mice in each group: a normal saline group (control), an Icaritin group (Icarian), a yyhs-i-b high dose group, a yyhs-1-b low dose group, a yyhs-2-a high dose group, and a yyhs-2-a low dose group. Administration was performed intraperitoneally every day for 21 days totally.
The administration doses were: Icarian at 10 mg/kg, compound 51 high dose at 25.30 mg/kg, low dose at 12.65 mg/kg, compound 57 high dose at 22.91 mg/kg, and low dose at 11.45 mg/kg.
From day 0, the body weights and tumor volumes of nude mice were measured once every three days, in which the maximum diameter (a) of tumor was measured first, and then the longest radial line length (b) perpendicular to the maximum diameter line was measured, in mm, thereby calculating the tumor volume according to the following formula: […]
At the end of the treatment cycle, blood was taken from orbital vein of the nude mice for later blood routine test. Then the nude mice were sacrificed using cervical vertebra dislocation. After taking photos, the tumors were stripped immediately and photographed for record. From day 0, the body weights of each group of nude mice were weighed and recorded every 3 days, and at the same time, the tumor volumes of these nude mice were recorded. The average body weight and tumor volume were calculated for each group, and the curve of body weight versus tumor volume of the nude mice was plotted according to the statistical data.
The hearts, livers, spleens, lungs, and kidneys were subsequently picked from the nude mice, soaked with 4% paraformaldehyde and then preserved at a low temperature of 4° C. for later investigation of the mechanism of the anti-tumor in vivo. The tumor volume growth curve was plotted with the time as the horizontal coordinate, and with the tumor volume as the vertical coordinate. The tumor volume growth curves and the appearance of tumors are seen in FIG. 1. The body weight changing curves of mice are plotted in FIG. 2, with the time as the horizontal coordinate, and the body weight of mice as the vertical coordinate.

[5] = Homo sapiens, SMMC-7721, SMMC7721, 48 h, read-out: IC50 SMMC7721 48 h
[6] = Homo sapiens, SMMC-7721, SMMC7721, 72 h, read-out: IC50 SMMC7721 72 h
[7] = Homo sapiens, HepG2, 48 h, read-out: IC50 HepG2 48 h
[8] = Homo sapiens, HepG2, 72 h, read-out: IC50 HepG2 72 h
[9] = SMMC7721, 48 h, read-out: IC50 SMMC7721 48 h
[10] = SMMC7721, 72 h, read-out: IC50 SMMC7721 72 h
[11] = HepG2, 48 h, read-out: IC50 HepG2 48 h
[12] = HepG2, 72 h, read-out: IC50 HepG2 72 h
[13] = 37 °C, aqueous with cosolvent or surfactant or cyclodextrin

Row | SMILES | IC50 [2, 5] | IC50 [2, 6] | IC50 [3, 7] | IC50 [3, 8] | Solubility, 0.1% Tween 80 [1] | Solubility, Normal Saline [1] | Solubility, PBS [1] | Solubility, Water [1] | solubility compared with that of the bulk drug (Icaritin) [1] | IC50 [2, 9] | IC50 [2, 10] | IC50 compared with Icaritin, SMMC7721 72 h [2] | IC50 [3, 11] | IC50 [3, 12] | IC50 compared with Icaritin, HepG2 72 h [3] | IC50 compared with Icaritin, 48 and 72 h [3] | solubility ([1]; 37 °C, aqueous buffer) | solubility [1, 13] | tumor inhibition rate [4] | anti-tumor activity in vivo (tumor volume, FIG. 1) [4] | other results
1 | COc1ccc(-c2oc3c(CC=C(C)C)c(O)cc(O)c3c(=O)c2O)cc1 [Icaritin, reference compound] | 23.2 ± 1.02 µM | 15 ± 0.66 µM | 20.6 ± 2.82 µM | 16.1 ± 1.27 µM | – | – | – | – | – | – | – | – | – | – | – | – | – | – | 53% | – | solubility ([1]; aqueous buffer, PBS, 37° C. overnight, n = 3, read-out: Solubility, PBS): 8.1 ± 0.897 µg/mL (≈ 22 µM); solubility ([1]; aqueous with cosolvent or surfactant or cyclodextrin, 0.1% Tween 80, 37° C. overnight, n = 3, read-out: Solubility, 0.1% Tween 80): 8.11 ± 0.672 µg/mL (≈ 22 µM); solubility ([1]; saline or isotonic, normal saline, 37° C. overnight, n = 3, read-out: Solubility, Normal Saline): 8.1 ± 1.01 µg/mL (≈ 22 µM); solubility ([1]; water, 37° C. overnight, n = 3, read-out: Solubility, Water): 8.57 ± 0.832 µg/mL (≈ 23.3 µM)
2 | COc1ccc(-c2oc3c(CC=C(C)C)c(O)cc(O)c3c(=O)c2OC(=O)CCC(=O)OCCN(CCOCc2cn(CCO[C@@H]3O[C@H](CO)[C@@H](O)[C@H](O)[C@H]3O)nn2)c2ccccc2)cc1 [Compound 104] | > 100 µM | 12.9 ± 1.03 µM | > 100 µM | 9.02 ± 0.27 µM | Insoluble | Insoluble | Insoluble | Insoluble | – | – | – | less than that of Icaritin | – | – | less than that of Icaritin | – | – | – | – | – | –
3 | COc1ccc(-c2oc3c(CC=C(C)C)c(O)cc(O)c3c(=O)c2OC(=O)CCC(=O)OCc2cn([C@H]3O[C@@H](CO)[C@H](O)[C@@H](O)[C@@H]3O)nn2)cc1 [Compound 35] | > 100 µM | > 100 µM | > 100 µM | > 100 µM | – | – | – | – | improved effectively | – | – | – | – | – | – | – | 12 ± 1.02 µg/mL (≈ 16.8 µM) | 12.1 ± 1.03 µg/mL (≈ 17 µM) | – | – | solubility ([1]; 37 °C, saline or isotonic): 12.3 ± 1.31 µg/mL (≈ 17.3 µM); solubility ([1]; 37 °C, water): 12 ± 1.23 µg/mL (≈ 16.8 µM)

Now from value to molecule, other results behind:

Row | IC50 [2, 5] | IC50 [2, 6] | IC50 [3, 7] | IC50 [3, 8] | Solubility, 0.1% Tween 80 [1] | Solubility, Normal Saline [1] | Solubility, PBS [1] | Solubility, Water [1] | solubility compared with that of the bulk drug (Icaritin) [1] | IC50 [2, 9] | IC50 [2, 10] | IC50 compared with Icaritin, SMMC7721 72 h [2] | IC50 [3, 11] | IC50 [3, 12] | IC50 compared with Icaritin, HepG2 72 h [3] | IC50 compared with Icaritin, 48 and 72 h [3] | solubility ([1]; 37 °C, aqueous buffer) | solubility [1, 13] | SMILES | tumor inhibition rate [4] | anti-tumor activity in vivo (tumor volume, FIG. 1) [4] | other results
4 | – | – | – | – | 6.508 ± 0.742 µg/mL (≈ 7.71 µM) | 16.383 ± 0.941 µg/mL (≈ 19.4 µM) | 16.391 ± 1.029 µg/mL (≈ 19.4 µM) | 17.710 ± 1.012 µg/mL (≈ 21 µM) | improved effectively | 10.3 ± 1.19 µM | 5.82 ± 1.04 µM | less than that of Icaritin | 10.3 ± 1.19 µM | 7.91 ± 0.98 µM | less than that of Icaritin | less than those of Icaritin | – | – | COc1ccc(-c2oc3c(CC=C(C)C)c(O)cc(O)c3c(=O)c2OC(=O)CCC(=O)OCCOCCOCCOCc2cn(C3OC(CO)C(O)C(O)C3O)nn2)cc1 (centres unmarked) [Compound 57] | 90% | excellent anti-tumor activities in vivo and are dose-dependent | –
5 | 9.3 ± 0.35 µM | 5.99 ± 0.49 µM | 14.9 ± 0.22 µM | 7.09 ± 0.38 µM | – | – | – | – | improved effectively | – | – | less than that of Icaritin | – | – | less than that of Icaritin | less than those of Icaritin | 48.5 ± 0.948 µg/mL (≈ 52 µM) | 51.5 ± 1.23 µg/mL (≈ 55.3 µM) | COc1ccc(-c2oc3c(CC=C(C)C)c(O)cc(O)c3c(=O)c2OC(=O)CCC(=O)OCCOCCOCCOCCOCc2cn(CCO[C@H]3O[C@@H](CO)[C@H](O)[C@@H](O)[C@@H]3O)nn2)cc1 [Compound 51] | 95% | excellent anti-tumor activities in vivo and are dose-dependent | solubility ([1]; 37 °C, saline or isotonic): 47.9 ± 0.993 µg/mL (≈ 51.4 µM); solubility ([1]; 37 °C, water): 50.3 ± 1.31 µg/mL (≈ 54 µM)
6 | – | – | – | – | 6.123 ± 0.931 µg/mL (≈ 7.14 µM) | 5.036 ± 1.031 µg/mL (≈ 5.87 µM) | 5.031 ± 0.901 µg/mL (≈ 5.86 µM) | 5.474 ± 0.394 µg/mL (≈ 6.38 µM) | – | > 100 µM | 8.68 ± 0.52 µM | less than that of Icaritin | > 100 µM | > 100 µM | – | – | – | – | COc1ccc(-c2oc3c(CC=C(C)C)c(O)cc(O)c3c(=O)c2OC(=O)CCC(=O)OCCCOCc2cn(CCOCCOC3OC(CO)C(O)C(O)C3O)nn2)cc1 (centres unmarked) [Compound 97] | – | – | –
